Data taken from patent publication US6911432B2, “Drugs, foods or drinks with the use of algae-derived physiologically active substances” (priority 1997, dated 2005).

Experiments:
A549 = assay: antiproliferation assay, MTT method; assay type: cell-based, human; conditions: for dilution rate of the dilution added to the group whose absorbance at 590 nm was less than one-half of that of the control group: dilution rate 1 corresponds to 5 mM in medium; for IC50: read-out: IC50 (concentration required for 50% proliferation inhibitory rate)
Description: (§1) Each fraction was sterilized by filtration and its 10 μl portion was placed in a well of a 96 well microtiter plate. […] The cell morphology was observed under an optical microscope. […] The absorbance at 590 nm was measured to determine a cell proliferation rate. (2) A 50 mM solution of agarobiose, agarotetraose or agarohexaose obtained in Example 3-(1) was sterilized by filtration and diluted 2-, 4-, 8-, 16-, 32-, 64- and 128-folds with sterilized water. […] [table] The number in Table 3 represents the dilution rate of the dilution added to the group whose absorbance at 590 nm was less than one-half of that of the control group to which water was added. […] Then, for agarobiose, agarotetraose and agarohexaose, the concentrations required for 50% proliferation inhibitory rate (IC50) are calculated based on the change in the absorbance at 590 nm, and are shown in Table 4.

HCT116 = assay: antiproliferation assay, MTT method; assay type: cell-based, human; conditions: for dilution rate of the dilution added to the group whose absorbance at 590 nm was less than one-half of that of the control group: dilution rate 1 corresponds to 5 mM in medium; for IC50: read-out: IC50 (concentration required for 50% proliferation inhibitory rate)
Description: as §1

HT-29 = assay: antiproliferation assay, MTT method; assay type: cell-based, human; conditions: for dilution rate of the dilution added to the group whose absorbance at 590 nm was less than one-half of that of the control group: dilution rate 1 corresponds to 5 mM in medium; for IC50: read-out: IC50 (concentration required for 50% proliferation inhibitory rate)
Description: as §1

HeLa S3 = assay: antiproliferation assay, MTT method; assay type: cell-based, human; conditions: for dilution rate of the dilution added to the group whose absorbance at 590 nm was less than one-half of that of the control group: dilution rate 1 corresponds to 5 mM in medium; for IC50: read-out: IC50 (concentration required for 50% proliferation inhibitory rate)
Description: as §1

MCF7 = assay: antiproliferation assay, MTT method; assay type: cell-based, human; conditions: for dilution rate of the dilution added to the group whose absorbance at 590 nm was less than one-half of that of the control group: dilution rate 1 corresponds to 5 mM in medium; for IC50: read-out: IC50 (concentration required for 50% proliferation inhibitory rate)
Description: as §1

MKN45 = assay: antiproliferation assay, MTT method; assay type: cell-based, human; conditions: for dilution rate of the dilution added to the group whose absorbance at 590 nm was less than one-half of that of the control group: dilution rate 1 corresponds to 5 mM in medium; for IC50: read-out: IC50 (concentration required for 50% proliferation inhibitory rate)
Description: as §1

RPMI1788 = assay: antiproliferation assay, MTT method; assay type: cell-based, human; conditions: for dilution rate of the dilution added to the group whose absorbance at 590 nm was less than one-half of that of the control group: dilution rate 1 corresponds to 5 mM in medium; for IC50: read-out: IC50 (concentration required for 50% proliferation inhibitory rate)
Description: as §1

T-47D = assay: antiproliferation assay, MTT method; assay type: cell-based, human; conditions: for dilution rate of the dilution added to the group whose absorbance at 590 nm was less than one-half of that of the control group: dilution rate 1 corresponds to 5 mM in medium; for IC50: read-out: IC50 (concentration required for 50% proliferation inhibitory rate)
Description: as §1

T24 = assay: antiproliferation assay, MTT method; assay type: cell-based, human; conditions: for dilution rate of the dilution added to the group whose absorbance at 590 nm was less than one-half of that of the control group: dilution rate 1 corresponds to 5 mM in medium; for IC50: read-out: IC50 (concentration required for 50% proliferation inhibitory rate)
Description: as §1

WiDr = assay: antiproliferation assay, MTT method; assay type: cell-based, human; conditions: for dilution rate of the dilution added to the group whose absorbance at 590 nm was less than one-half of that of the control group: dilution rate 1 corresponds to 5 mM in medium; for IC50: read-out: IC50 (concentration required for 50% proliferation inhibitory rate)
Description: as §1

A-172 = assay: antiproliferation assay, MTT method; assay type: cell-based; conditions: for dilution rate of the dilution added to the group whose absorbance at 590 nm was less than one-half of that of the control group: dilution rate 1 corresponds to 5 mM in medium; for IC50: read-out: IC50 (concentration required for 50% proliferation inhibitory rate)
Description: as §1

HT-1080 = assay: antiproliferation assay, MTT method; assay type: cell-based; conditions: for dilution rate of the dilution added to the group whose absorbance at 590 nm was less than one-half of that of the control group: dilution rate 1 corresponds to 5 mM in medium; for IC50: read-out: IC50 (concentration required for 50% proliferation inhibitory rate)
Description: as §1

HL-60 cells = assay: viable cell count with Trypan Blue under a microscope; assay type: cell-based, human; conditions: final concentration 250 μM or 125 μM; for number of viable cells as compared with the group to which water was added: 24 hours or 48 hours
Description: Agarobiose, agarotetraose, agarohexaose and agarooctaose (hereinafter, sometimes, these oligosuccharaides are referred to as agarooligosaccharides) obtained in Example 5 were dissolved in water at a concentration of 2.5 mM or 1.25 mM separately, and were sterilized by filtration. HL-60 cells were suspended in RPMI 1640 medium containing 10% fetal bovine serum at a concentration of 2.5×10^5 cells/4.5 ml and to this suspension was added 0.5 ml of each of the oligosaccharide solutions. The resultant mixture were incubated with 5% CO2 at 37° C. for 24 hours or 48 hours. A part of the cell culture was taken up, followed by addition of Trypan Blue thereto and observing under a microscope to count the number of viable cells.
That is, FIG. 14 illustrates the relation between the incubation time and the number of viable cells when HL-60 cells were cultured with addition of one of the oligosaccharides at the final concentration of 250 μM. FIG. 15 illustrates the relation between the incubation time and the number of viable cells when HL-60 cells were cultured with addition of one of the oligosaccharides at the final concentration of 125 μM. In FIGS. 14 and 15, the horizontal axes represent the incubation time (hrs.) and the vertical axes represent the number of viable cells (× 10^5/5 ml). The closed circle (●) represents the addition of water (control), the open diamond (⋄) represents the addition of agarobiose, the open circle (◯) represents the addition of agarotetraose, the open triangle (Δ) represents the addition of agarohexaose and the open square (□) represents the addition of agarooctaose.

[1] = tested on: lipid peroxide radical production; assay: inhibition of lipid peroxide radical production (tert-butyl hydroperoxide, bacterial growth readout); assay type: cell-based, Staphylococcus aureus 3A; parameters: key to growth of the bacterium (activity of inhibiting lipid peroxide radical production): + represents the sample in which the growth of the bacterium was observed; −represents the sample in which the growth of the bacterium was not observed
Description: Staphylococcus aureus 3A (National Collection Of Type Culture, NCTC 8319) was inoculated into 5 ml of brain heart infusion medium (manufactured by Difco, 0037-17-8) and cultured at 37° C. overnight. The bacterial cells were collected by centrifugation, washed with phosphate buffered saline 3 times and then suspended in phosphate buffered saline at a concentration of 1×10^7 colony forming units/ml. A mixture of 100 μl of the cell suspension, 100 μl of an aqueous sample solution, 100 μl of aqueous 1 mg/ml methemoglobin (manufactured by Sigma M9250) solution, 600 μl of phosphated buffered saline and 100 μl of aqueous 50 mM tert-butyl hydroperoxide (manufactured by Katayama Kagaku, 03-4990) solution were reacted at 37° C. for 30 minutes. To the reaction mixture was added 1 ml of 2×NMP medium [prepared by dissolving 8 g of nutrient broth (manufactured by Difco, 0003-01-6), 5 g of trypton (manufactured by Difco, 0123-17-3), 5 g of NaCl, 10 g of mannitol (manufactured by Nacalai Tesque, 213-03) and 0.035 g of phenol red (manufactured by Nacalai Tesque, 268-07) in distilled water to make the volume up to 500 ml. The pH was adjusted to 7.5 with NaOH and then the mixture was sterilized by filtration] to stop the reaction. The resultant mixture was diluted every 3-folds with NMP medium (prepared by diluting 2×NMP medium 2-folds with sterilized water) to prepare 12 serial dilutions and 160 μl of each dilution was placed in each well of a 96-well microtiter plate. The plate was incubated at 37° C. overnight.
In Table 14, + represents the sample in which the growth of the bacterium was observed, and −represents the sample in which the growth of the bacterium was not observed. The concentration shown in the uppermost line of the table is that of the sample in the reaction mixture in which the sample was reacted with tert-butyl hydroperoxide and the bacterial cells at 37° C. for 30 minutes.

iNOS = iNOS expression by western blotting and RT-PCR; assay type: cell-based; conditions: protein level by western blotting, messenger RNA level by RT-PCR
Description: The confirmation was carried out at protein level by western blotting and at messenger RNA level by RT-PCR. That is, the compounds used in the present invention are useful for treating and preventing diseases that require inhibition of NO production by inhibiting expression of iNOS which is overexpressed by various factors to produce excess NO.

[2] = 0.1 mM sample in the reaction mixture
[3] = 1 mM sample in the reaction mixture

For OC[C@H]1O[C@@H](O[C@H]2[C@H]3OC[C@@H]2O[C@@H](O[C@H]2[C@@H](O)[C@@H](CO)O[C@@H](O[C@H]4[C@H]5OC[C@@H]4OC(O)[C@H]5O)[C@@H]2O)[C@H]3O)[C@H](O)[C@@H](O)[C@H]1O (stereo partly drawn) [Agarotetraose, agarotetraose], the “dilution rate of the dilution added to the group whose absorbance at 590 nm was less than one-half of that of the control group” value (from here on “dilution rate of the dilution added”) (A549) was 8, the IC50 (A549) was 494 µM and the “dilution rate of the dilution added” value (HCT116) was 32. The IC50 (HCT116) was 158 µM, the “dilution rate of the dilution added” value (HT-29) was 16 and the IC50 (HT-29) was 208 µM. The “dilution rate of the dilution added” value (HeLa S3) was 8, the IC50 (HeLa S3) was 400 µM and the “dilution rate of the dilution added” value (MCF7) was 16. The IC50 (MCF7) was 276 µM, the “dilution rate of the dilution added” value (MKN45) was 16 and the IC50 (MKN45) was 196 µM. The “dilution rate of the dilution added” value (RPMI1788) was 128, the IC50 (RPMI1788) was 28 µM and the “dilution rate of the dilution added” value (T-47D) was 16. The IC50 (T-47D) was 183 µM, the “dilution rate of the dilution added” value (T24) was 8 and the IC50 (T24) was 399 µM. For the same compound, the “dilution rate of the dilution added” value (WiDr) was 8, the IC50 (WiDr) was 399 µM and the “dilution rate of the dilution added” value (A-172) was 16. For the same compound, the IC50 (A-172) was 185 µM, the “dilution rate of the dilution added” value (HT-1080) was 16 and the IC50 (HT-1080) was 216 µM. The apoptosis corpuscles (HL-60 cells) was “apoptosis corpuscles were observed”, the “number of viable cells as compared with the group to which water was added” value (HL-60 cells) was “decreased” and the “activity of inhibiting lipid peroxide radical production (in words)” value [1] was “strong activity”. For the same compound, the “growth of the bacterium (activity of inhibiting lipid peroxide radical production)” value [1, 2] was “−”, the “growth of the bacterium (activity of inhibiting lipid peroxide radical production)” value [1, 3] was “+” and the “inhibition of iNOS expression” value (iNOS) was “inhibit this iNOS expression”.
With OC[C@H]1O[C@@H](O[C@H]2[C@H]3OC[C@@H]2OC(O)[C@H]3O)[C@H](O)[C@@H](O)[C@H]1O (mixture of isomers) [Agarobiose, agarobiose] the “dilution rate of the dilution added” value (A549) was 8, the IC50 (A549) was 570 µM and the “dilution rate of the dilution added” value (HCT116) was 16. The IC50 (HCT116) was 244 µM, the “dilution rate of the dilution added” value (HT-29) was 8 and the IC50 (HT-29) was 622 µM. For the same compound, the “dilution rate of the dilution added” value (HeLa S3) was 8, the IC50 (HeLa S3) was 353 µM and the “dilution rate of the dilution added” value (MCF7) was 16. The IC50 (MCF7) was 274 µM, the “dilution rate of the dilution added” value (MKN45) was 8 and the IC50 (MKN45) was 344 µM. For the same compound, the “dilution rate of the dilution added” value (RPMI1788) was 64, the IC50 (RPMI1788) was 44 µM and the “dilution rate of the dilution added” value (T-47D) was 16. For the same compound, the IC50 (T-47D) was 210 µM, the “dilution rate of the dilution added” value (T24) was 8 and the IC50 (T24) was 352 µM. For the same compound, the “dilution rate of the dilution added” value (WiDr) was 8, the IC50 (WiDr) was 405 µM and the “dilution rate of the dilution added” value (A-172) was 16. For the same compound, the IC50 (A-172) was 289 µM, the “dilution rate of the dilution added” value (HT-1080) was 8 and the IC50 (HT-1080) was 317 µM. For the same compound, the apoptosis corpuscles (HL-60 cells) was “apoptosis corpuscles were observed”, the “number of viable cells as compared with the group to which water was added” value (HL-60 cells) was “decreased” and the “activity of inhibiting lipid peroxide radical production (in words)” value [1] was “strong activity”. For the same compound, the “growth of the bacterium (activity of inhibiting lipid peroxide radical production)” value [1, 2] was “+”, the “growth of the bacterium (activity of inhibiting lipid peroxide radical production)” value [1, 3] was “+” and the “inhibition of iNOS expression” value (iNOS) was “inhibit this iNOS expression”.
